As a reminder, the Kd is the free concentration of one partner at which half of the binding sites on the other are occupied at equilibrium, for simple one-to-one binding. What is called inhibition is the change of the read-out against control, counted positive when it falls. What is called IC50 is the concentration at which inhibition is half-maximal.

These results are taken from patent US10975068B2, “6-aminopyridin-3-yl thiazoles as modulators of RORγT” (Janssen Pharmaceutica NV, priority 2016, dated 2021).

Assay [1] concerns the target human RORγt ligand binding domain (RORγt LBD) (Homo sapiens (Human), UniProt P51449). Description: RORγt ThermoFluor® assay (thermal shift binding). Particulars: read-out: ThermoFluor® Assay, Kd. An excerpt: ThermoFluor® is a fluorescence based assay that estimates ligand binding affinities by measuring the effect of a ligand on protein thermal stability (Pantoliano, M. W., Petrella, E. C., Kwasnoski, J. D., Lobanov, V. S., Myslik, J., Graf, E., Carver, T., Asel, E., Springer, B. A., Lane, P., and Salemme, F. R. (2001) High-density miniaturized thermal shift assays as a general strategy for drug discovery. J Biomol Screen 6, 429-40, and Matulis, D., Kranz, J. K., Salemme, F. R., and Todd, M. J. (2005) Thermodynamic stability of carbonic anhydrase: measurements of binding affinity and stoichiometry using ThermoFluor. Biochemistry 44, 5258-66). This approach is applicable to a wide variety of systems, and rigorous in theoretical interpretation through quantitation of equilibrium binding constants (KD).
The shift in the melting point described as a ΔTm is proportional to the concentration and affinity of the ligand. The compound potency may be compared as a rank order of either ΔTm values at a single compound concentration or in terms of KD values, estimated from concentration response curves.
RORγt ThermoFluor® Assay Construct
For the RORγt construct used in the ThermoFluor® assay, numbering for the nucleotide sequences was based on the reference sequence for human RORγt, transcript variant 2, NCBI Accession: NM_001001523.1 (SEQ ID NO:1). Nucleotides 850-1635 (SEQ ID NO:2) coding for the wild type human RORγt ligand binding domain (RORγt LBD) were cloned into the pHIS1 vector, a modified pET E. coli expression vector (Accelagen, San Diego), containing an in-frame N-terminal His-tag and a TurboTEV protease cleavage site (ENLYFQG, SEQ ID NO:3) upstream of the cloned insert sequence. The amino acid sequence for the RORγt construct used in the Thermofluor® assay is shown as SEQ ID NO:4.
ThermoFluor® experiments were carried out using instruments owned by Janssen Research and Discovery, L.L.C. through its acquisition of 3-Dimensional Pharmaceuticals, Inc. 1,8-ANS (Invitrogen) was used as a fluorescent dye. Protein and compound solutions are dispensed into black 384-well polypropylene PCR microplates (Abgene) and overlayed with silicone oil (1 μL, Fluka, type DC 200) to prevent evaporation.
Bar-coded assay plates are robotically loaded onto a thermostatically controlled PCR-type thermal block and then heated at a typical ramp-rate of 1° C./min for all experiments. Fluorescence was measured by continuous illumination with UV light (Hamamatsu LC6) supplied via fiber optic and filtered through a band-pass filter (380-400 nm; >6 OD cutoff). Fluorescence emission of the entire 384-well plate was detected by measuring light intensity using a CCD camera (Sensys, Roper Scientific) filtered to detect 500±25 nm, resulting in simultaneous and independent readings of all 384 wells. Images were collected at each temperature, and the sum of the pixel intensity in a given area of the assay plate was recorded versus temperature. Reference wells contained RORγt without compounds, and the assay conditions were as follows: • 0.065 mg/mL RORγt • 60 μM 1,8-ANS • 100 mM Hepes, pH 7.0 • 10 mM NaCl • 2.5 mM GSH • 0.002% Tween-20
Project compounds were arranged in a pre-dosed mother plate (Greiner Bio-one) wherein compounds are serially diluted in 100% DMSO by 1:2 from a high concentration of 10 mM over 12 columns within a series (column 12 is a reference well containing DMSO, no compound). The compounds were robotically dispensed directly into assay plates (×=46 nL) using a Hummingbird capillary liquid handling instrument (Digilab). Following compound dispense, protein and dye in buffer was added to achieve the final assay volume of 3 μL, followed by 1 μL of silicone oil.
In general terms: Differential scanning fluorimetry follows unfolding on heating by fluorescence.

The target of the next assay is full-length human RORγt (Homo sapiens (Human), UniProt P51449). Description: RORγt (full-length human) reporter assay, Conditions B or C. It counts as cell-based. The settings on record: for inhibition at 3 µM: at 3 μM compound concentration, read-out: RORγt (FL) Reporter Assay B or C, % inhibition; for IC50: read-out: RORγt (FL) Reporter Assay B or C, IC50; for RORγt (FL) Reporter Assay B or C, % inhibition (value marked *): marked *: footnote not given. An excerpt:
RORγt (Full-Length Human) Reporter Assay:
Cells used in this assay were transiently co-transfected with three different plasmids, one expressing the GAL4-DNA binding domain (DBD)-RORγt fusion protein under control of a CMV promoter (NH2-Gal4-DBD:RORC-COOH in pCMV-BD, Stratagene #211342), and two reporter plasmids—the firefly luciferase reporter under control of a GAL4 promoter (pFR-Luc 2×GAL4) and Renilla luciferase reporter under control of CMV promoter (pRL-CMV, Promega # E2261). The full-length coding sequence was used for human RORγt, i.e., nucleotides 142-1635 of human RORγt, transcript variant 2, NCBI Accession: NM_001001523.1 (SEQ ID NO:1). HEK293T cells were plated at 35,000 per well in 96-well plate in medium of DMEM with 10% FBS. After 18-22 hours incubation, the transfection was carried out by using a PEI solution with 170.5 ng total DNA/well (50 ng pCMV-BD-ROR plus 20 ng of pFR-Luc reporter and 0.5 ng of pRL-CMV reporter plus 100 ng Carrier DNA (Clontech #630440) for each well). 4-6 hours after transfection, cells were treated with compounds for overnight in the medium with final concentration of FBS 1.3% and DMSO 0.1%. After overnight (16 to 20 hours) incubation, media were removed and cells were lysed with 50 μL Glo Lysis Buffer (Promega) for 10-15 minutes followed by 10 minute incubation with 50 μL Dual Glo reagent (Promega) at room temperature. Firefly luciferase luminescence was measured using a BMG Pherastar plate reader. To each well, 50 μL Stop and Glo reagent was added and incubated for 10 minutes at room temperature. Renilla luminescence was measured using a BMG Pherastar plate reader. To calculate the effect of compounds on RORγt activity, firefly values were normalized against values of DMSO only and values of reference compound at saturating concentration, then further normalized against Renilla signals. IC50s were generated by plotting final Renilla normalized data against compound concentration and percent inhibition was calculated against DMSO control.
Cells used in this assay were transiently co-transfected with three different plasmids, one expressing the GAL4-DNA binding domain (DBD)-RORγt fusion protein under control of a CMV promoter (NH2-Gal4-DBD:RORC-COOH in pCMV-BD, Stratagene #211342), and two reporter plasmids—the firefly luciferase reporter under control of a GAL4 promoter (pFR-Luc 2×GAL4) and Renilla luciferase reporter under control of CMV promoter (pRL-CMV, Promega # E2261). The full-length coding sequence was used for human RORγt, i.e., nucleotides 142-1635 of human RORγt, transcript variant 2, NCBI Accession: NM_001001523.1 (SEQ ID NO:1). HEK293T cells were plated at 8750 cells per well in 384-well plate in medium of DMEM with 10% FBS. After 18-22 hours incubation, the transfection was carried out by using a PEI solution with 42.6 ng total DNA/well (12.5 ng pCMV-BD-ROR plus 5 ng of pFR-Luc reporter and 0.125 ng of pRL-CMV reporter plus 25 ng Carrier DNA (Clontech #630440) for each well). 4-6 hours after transfection, cells were treated with compounds for overnight in the medium with final concentration of FBS 1.3% and DMSO 0.1%. After overnight (16 to 20 hours) incubation, media were removed and cells were lysed with 20 μL Glo Lysis Buffer (Promega) for 10-15 minutes followed by 10 minute incubation with 20 μL Dual Glo reagent (Promega) at room temperature. Firefly luciferase luminescence was measured using a BMG Pherastar plate reader. To each well, 20 μL Stop and Glo reagent was added and incubated for 10 minutes at room temperature. Renilla luminescence was measured using a BMG Pherastar plate reader. To calculate the effect of compounds on RORγt activity, firefly values were normalized against values of DMSO only and values of reference compound at saturating concentration, then further normalized against Renilla signals.
On the technique in general: In a reporter assay the amount or activity of a reporter protein is the signal.

Read-outs that look alike come from different tables or passages of the source.

human RORγt ligand binding domain (RORγt LBD), sequence (P51449 other isoform, or with tags, fused parts or gaps): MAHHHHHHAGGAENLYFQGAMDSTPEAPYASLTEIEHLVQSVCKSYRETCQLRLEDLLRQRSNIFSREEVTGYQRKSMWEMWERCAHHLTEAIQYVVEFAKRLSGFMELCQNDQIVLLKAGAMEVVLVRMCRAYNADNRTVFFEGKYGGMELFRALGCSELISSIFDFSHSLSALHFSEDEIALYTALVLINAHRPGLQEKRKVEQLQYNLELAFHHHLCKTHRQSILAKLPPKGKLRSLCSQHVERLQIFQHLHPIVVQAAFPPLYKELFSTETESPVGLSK
full-length human RORγt, sequence (P51449 other isoform, or with tags, fused parts or gaps): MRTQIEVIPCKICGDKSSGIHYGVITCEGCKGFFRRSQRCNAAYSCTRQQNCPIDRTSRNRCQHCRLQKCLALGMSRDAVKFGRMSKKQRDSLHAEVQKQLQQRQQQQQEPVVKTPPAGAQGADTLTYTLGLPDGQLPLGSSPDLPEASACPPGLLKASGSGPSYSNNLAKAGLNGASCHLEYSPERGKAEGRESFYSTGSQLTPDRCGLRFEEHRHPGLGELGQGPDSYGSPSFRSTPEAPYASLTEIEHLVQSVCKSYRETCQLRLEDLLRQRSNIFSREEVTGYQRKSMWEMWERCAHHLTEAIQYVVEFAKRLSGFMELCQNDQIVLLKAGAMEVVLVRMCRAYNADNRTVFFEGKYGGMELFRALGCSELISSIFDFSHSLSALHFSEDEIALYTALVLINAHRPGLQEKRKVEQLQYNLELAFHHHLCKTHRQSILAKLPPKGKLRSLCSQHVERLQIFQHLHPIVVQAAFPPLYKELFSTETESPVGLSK

For `C[C@H](Nc1cc(C(F)F)c(-c2sc(C(=O)N[C@H]3CC[C@H](O)C3)nc2C(=O)N2CC(F)(F)C[C@@H]2C)cn1)C(F)(F)F` [Example 415, 4-[(2S)-4,4-Difluoro-2-methyl-pyrrolidine-1-carbonyl]-5-[4-(difluoromethyl)-6-[[(1S)-2,2,2-trifluoro-1-methyl-ethyl]amino]-3-pyridyl]-N-[(1S,3S)-3-hydroxycyclopentyl]thiazole-2-carboxamide], the Kd in assay [1] amounted to 1.1 nM. Moreover, on full-length human RORγt, the inhibition at 3 µM turned out to be 97% and the IC50 was determined as 64 nM.

As for `C[C@H](NC(=O)c1nc(C(=O)N2C3CCC2CC3)c(-c2cnc(NC3(C)CCC3)cc2C(F)F)s1)C(C)(C)O` [Example 189], in assay [1], the Kd is 3.6 nM. On full-length human RORγt (Conditions B or C), the “RORγt (FL) Reporter Assay B or C, % inhibition (value marked *)” value (“RORγt … % inhibition (value marked *)” below) is on record as 101* % and the IC50 turned out to be 98 nM.

`CC[C@H](Nc1cc(C(F)F)c(-c2sc(C(=O)NC3CN(C(C)=O)C3)nc2C(=O)N2CCC[C@@H]2C)cn1)C(F)(F)F` [Example 382, N-(1-Acetylazetidin-3-yl)-5-[4-(difluoromethyl)-6-[[(1S)-1-(trifluoromethyl)propyl]amino]-3-pyridyl]-4-[(2S)-2-methylpyrrolidine-1-carbonyl]thiazole-2-carboxamide]: the dissociation constant (Kd) in assay [1] was 47 nM. Further, on full-length human RORγt, the inhibition at 3 µM came out at 107% and the IC50 is 300 nM.

Take `CC[C@H](Nc1cc(C(F)(F)F)c(-c2sc(C(=O)N[C@@H]3COC[C@H]3O)nc2C(=O)N2CCC[C@@H]2C)cn1)C(F)(F)F` [Example 170, N-((3R,4S)-4-Hydroxytetrahydrofuran-3-yl)-4-((2S)-2-methylpyrrolidine-1-carbonyl)-5-(4-(trifluoromethyl)-6-(((1S)-1-(trifluoromethyl)propyl)amino)-3-pyridyl)thiazole-2-carboxamide]: in assay [1], the Kd was 1.9 nM. In addition, at full-length human RORγt (Conditions B or C), the “RORγt … % inhibition (value marked *)” value is 101* % and the 50% inhibitory concentration (IC50) amounted to 24 nM.

For `CC[C@H](Nc1cc(C(F)F)c(-c2sc(C(=O)NC3CCS(=O)(=O)CC3)nc2C(=O)N2C3CCC2CC3)cn1)C(F)(F)F` [Example 154], in assay [1], the dissociation constant (Kd) came out at 1 nM. For the same compound, at full-length human RORγt (Conditions B or C), the “RORγt … % inhibition (value marked *)” value is on record as 99* % and the IC50 was found to be 98 nM.

Turning to `C[C@H]1CCCN1C(=O)c1nc(C(=O)NCC(C)(C)N)sc1-c1cnc(NC(C)(C)C)cc1C(F)(F)F` [Example 355, N-(2-Amino-2-methyl-propyl)-5-[6-(tert-butylamino)-4-(trifluoromethyl)-3-pyridyl]-4-[(2S)-2-methylpyrrolidine-1-carbonyl]thiazole-2-carboxamide], the Kd in assay [1] turned out to be 22 nM. Further, on full-length human RORγt, the inhibition at 3 µM is 98% and the half-inhibitory concentration (IC50) was determined as 170 nM.

On to `C[C@H](Nc1cc(C(F)(F)F)c(-c2sc(C(=O)NCC(C)(C)O)nc2C(=O)N2CCC[C@@H]2C)cn1)C1CCC1` (relative stereo) [Example 175, 5-(6-(((S*)-1-Cyclobutylethyl)amino)-4-(trifluoromethyl)pyridine-3-yl)-N-(2-hydroxy-2-methylpropyl)-4-(((S)-2-methylpyrrolidine-1-carbonyl)thiazole-2-carboxamide], for which the Kd in assay [1] worked out at 5.8 nM. For the same compound, the “RORγt (FL) Reporter Assay B or C, % inhibition (value marked ***)” value at full-length human RORγt (Conditions B or C, marked ***: footnote not given) was 119*** %. The IC50 at full-length human RORγt (Conditions B or C) was 44 nM.

Regarding `C[C@H](CO)NC(=O)c1nc(C(=O)N2CC(F)(F)C[C@@H]2C)c(-c2cnc(NC(C)(C)C)cc2C(F)F)s1` [Example 428, 5-[6-(tert-Butylamino)-4-(difluoromethyl)-3-pyridyl]-4-[(2S)-4,4-difluoro-2-methyl-pyrrolidine-1-carbonyl]-N-[(1R)-2-hydroxy-1-methyl-ethyl]thiazole-2-carboxamide], in assay [1], the Kd turned out to be 1 nM. For the same compound, on full-length human RORγt, the inhibition at 3 µM was 113% and the IC50 was determined as 17 nM.

`C[C@H](NC(=O)c1nc(C(=O)N2CCC[C@@H]2C)c(-c2cnc(NC(C)(C)C)cc2C(F)F)s1)C(C)(C)O` [Example 270, 5-[6-(tert-Butylamino)-4-(difluoromethyl)-3-pyridyl]-N-[(1S)-2-hydroxy-1,2-dimethyl-propyl]-4-[(2S)-2-methylpyrrolidine-1-carbonyl]thiazole-2-carboxamide]: the Kd in assay [1] amounted to 3.5 nM. Moreover, on full-length human RORγt, the inhibition at 3 µM came out at 102% and the half-maximal inhibitory concentration (IC50) is 5.1 nM.

On to `C[C@H]1CC(F)(F)CN1C(=O)c1nc(C(=O)NCC(C)(C)O)sc1-c1cnc(NC(C)(C)C2CC2)cc1C(F)F` [Example 106, (S)-5-(6-((2-Cyclopropylpropan-2-yl)amino)-4-(difluoromethyl)pyridin-3-yl)-4-(4,4-difluoro-2-methylpyrrolidine-1-carbonyl)-N-(2-hydroxy-2-methylpropyl)thiazole-2-carboxamide], for which, in assay [1], the Kd was 0.79 nM. Moreover, on full-length human RORγt (Conditions B or C), the “RORγt … % inhibition (value marked *)” value was 117* % and the IC50 is 22 nM.
